# Laboratory results as given in patent publication US12594282B2, “Use of small molecule compounds in the treatment of diseases mediated by lung epithelial cell injury and/or vascular endothelial cell injury” (Guangzhou Cellprotek Pharmaceutical Co., Ltd., priority 2020, dated 2026).
# Assays:
# NR4A3 [1] = assay: NR4A3 ubiquitination after OGD-R in vascular endothelial cells (immunoprecipitation with anti-ubiquitin antibodies); format: cell-based
# Description: (§1) HUVEC cells were cultured in modified DMEM medium containing 10% fetal bovine serum. When the cells reached about 80% confluence, the cells were digested with 0.25% trypsin, and then pipetted evenly with modified DMEM containing 10% […]. The cell concentration was adjusted to 1×10^5 cells/mL, and the cells were seeded at 400 uL/well in a 24-well plate, and the experiment was carried out when the cells grew to about 70% confluence. RAOEC cells were cultured in high-glucose DMEM medium containing 10% fetal bovine serum, and the seeding conditions were the same as those of HUVEC. During the OGD-R injury treatment, the hypoxia workstation was set to have an oxygen concentration of 1% (1% O2, 5% CO2, 94% N2), a temperature of 37° C., and a humidity of 85%. A sugar-free DMEM medium was placed in the hypoxia workstation for pre-hypoxia for 3 hours. The medium in the culture plate was aspirated, and the plate was washed twice with preheated sugar-free DMEM medium, and 100 uL of sugar-free DMEM medium was added to each well. The culture plate was placed in the hypoxia workstation, and 300 uL of pre-hypoxic sugar-free DMEM medium was added to each well, and then the culture plate was placed in the hypoxia workstation for additional hypoxia for 4 hours. Restoration was then performed. The culture plate was taken out, and the sugar-free DMEM medium was replaced with 400 uL of normal medium containing 10% fetal bovine serum, and then the plate was placed in a 37° C. 5% CO2 cell incubator for culturing for 24 hours or a specified time period. For the cells in the normal group, it was only replaced with 400 uL of new normal medium containing 10% fetal bovine serum. […]
# (§2) The cells were washed twice with pre-cooled PBS, then scraped off with a cell scraper and transferred to a 1.5 mL centrifuge tube, and centrifugation was performed at 4° C. and 1000 g for 5 minutes. […] Each protein sample was then quantified using the BCA protein quantification kit. After protein quantification, IP lysis buffer was used to adjust the protein concentration of each sample to 1 mg/mL. […]
# NR4A3 [2] = assay: NR4A3/CD31 immunofluorescence of lung tissue, acute hypobaric hypoxia; format: in vivo, Macaca fascicularis
# Description: Paraffin sections of Macaca fascicularis lung tissue, include 3 in the normal control group (normobaric normoxia, NN), 5 in the acute hypobaric hypoxia treatment group (hypobaric hypoxia, HH), and 5 in the acute hypobaric hypoxia+YC-6 treatment group (HH+YC-6).
# The paraffin sections were placed in a 65° C. oven for 30 minutes, and then quickly transferred to 100% xylene for dewaxing, and then subjected to rehydration according to the regular process (100% xylene, 5 min—100% xylene, 2 min—100% xylene, 2 min—100% ethanol, 1 min—100% ethanol, 1 min—95% ethanol, 1 min—90% ethanol, 1 min—B0% ethanol, 1 min—70% ethanol, 1 min—50% ethanol, 1 min—distilled water, 1 min×3), and then EDTA antigen retrieval solution (microwave heating) was used for antigen retrieval. After the retrieval, it was naturally cooled to room temperature, and then washed three times with PBS for 5 minutes each time. The residual PBS on the tissue section was removed. A circle was drew around the tissue with an immunohistochemical pen, and then the corresponding primary antibody diluted in DAKO antibody diluent was added to the tissue to make it completely cover the tissue. The tissue section was incubated overnight in a humidified chamber at 4° C. Then it was washed 3 times with PBS for 5 minutes each time. […]
# NR4A3 [3] = assay: NR4A3 protein expression under OGD-R, RAOEC (Western blot, immunofluorescence); format: cell-based, rat; settings: OGD 4 hours, restoration 24 hours, 1, 3, 10 μM given at restoration
# Description: as §1
# as §2, with “protein” for “IP”, “be consistent with the protein sample with the lowest concentration, and then each protein sample was sufficiently mixed with 5× protein loading buffer at a ratio of 4:1.” for “1 mg/mL.”
smiles,measurement,setting,value
"C[C@@]12CCCC1C1C[C@@H](O)[C@]3(O)C[C@@H](O)CC[C@]3(C)C1CC2 (stereo partly drawn) [YC-6, 5α-androst-3β,5,6β-triol]",ubiquitination of NR4A3 on co-administration with MG132,NR4A3 [1]; YC-6 10 μM with MG132 100 nM after restoration,did not significantly increase the ubiquitination of NR4A3
same,ubiquitination modification of NR4A3 induced by restoration,"NR4A3 [1]; YC-6 10 μM, MG132 100 nM, given at restoration",could inhibit the ubiquitination of NR4A3 induced by restoration
same,NR4A3 protein expression in lung tissue endothelial cells,"NR4A3 [2]; NR4A3 co-localized with CD31, immunofluorescence",significantly increased the protein expression of NR4A3
same,expression of vascular endothelial cell marker CD31 in lung tissue,NR4A3 [2]; immunofluorescence,inhibited the down-regulation of the expression of vascular endothelial cell marker CD31
same,NR4A3 protein expression,NR4A3 [3],dose-dependently increase the protein expression of NR4A3
